This is an account of results in patent US20230190717A1, “P38 GAMMA INHIBITORS AND METHOD OF USE THEREOF” (City of Hope, priority 2017, published 2023).

For data set [1], the target named is T1, human recombinant p38 α protein (Homo sapiens, UniProt Q16539).
T1 construct: human recombinant p38 α, β, γ or δ protein (active full-length); purchased SignalChem; host or cells: baculovirus in Sf9 insect cells
Briefly: ADP-Glo in vitro kinase assay, p38α. It counts as biochemical. The method, then:
(§1) Kinase assay in vitro: Kinase enzyme assays in vitro were performed using ADP-Glo kit (Promega, Wis.). The luminescent ADP-Glo kinase assay measures ADP produced from ATP consumption in a kinase enzyme reaction. All compounds have been tested and shown no inhibition to luciferase activities. Briefly, in this experiment, human recombinant p38 α, β, γ or δ protein (active full-length) expressed by baculovirus in sf9 insect cells (SignalChem, Vancouver, Canada) was homogenized in wells of white opaque 96-well microplates with the kinase buffer that consisted of 40 mM Tris-HCl (pH 7.5), 20 mM MgCl2, 0.1 mg/mL BSA and 50 μM DTT. […] Next, synthetic peptide substrates ([…]) were added to the mixture at final concentration of 0.2 μg/μL, followed by adding ATP at various concentrations. The 50 μL mixture was reacted at room temperature for 60 min. […]
(§2) In vitro kinase assay (ADP-GLO): We identified p38γ inhibitors using in vitro kinase assay by screening a library of kinase inhibitors: The library consists of 244 compounds on three plates (EMD Cat #539744, #539745, and #539746) that are mostly ATP mimics. […] IC50 values were determined using […] software (Biosoft, Cambridge, United Kingdom).

For data set [2], the target named is T2, p38δ (Homo sapiens, UniProt O15264).
T2 sequence (O15264 1-365): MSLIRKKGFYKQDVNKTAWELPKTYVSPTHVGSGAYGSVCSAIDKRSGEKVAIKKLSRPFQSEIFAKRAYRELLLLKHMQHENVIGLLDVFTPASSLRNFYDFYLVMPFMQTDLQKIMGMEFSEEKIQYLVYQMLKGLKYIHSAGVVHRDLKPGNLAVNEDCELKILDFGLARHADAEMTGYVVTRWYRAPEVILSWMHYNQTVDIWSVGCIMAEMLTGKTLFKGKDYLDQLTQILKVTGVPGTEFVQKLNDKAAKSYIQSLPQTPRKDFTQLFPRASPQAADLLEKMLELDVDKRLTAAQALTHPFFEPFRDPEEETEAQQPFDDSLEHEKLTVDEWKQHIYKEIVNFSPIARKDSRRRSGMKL
As to the kind of experiment: Radiometric in vitro kinase assay (SignalChem), p38 δ. The conditions noted are these: 50 nM. It counts as biochemical. Further details: purchased SignalChem (assay service).
Protocol: (§3) Radiometric in vitro kinase assay: Radiometric in vitro kinase assay was performed by [sequence]

A further data set relates to HH cells. As to the kind of experiment: HH cell proliferation (cell number). To be noted: 100 nM and 300 nM, four days. Type of data set: cell-based, human.
Data set [3] addresses T2, p38δ. As to the kind of experiment: ADP-Glo in vitro kinase assay, p38δ. It counts as biochemical. Further details: human recombinant p38 α, β, γ or δ protein (active full-length); purchased SignalChem; host or cells: baculovirus in Sf9 insect cells. The method, then: as §1, §2
A further data set relates to Hut78 xenografts. The conditions noted are these: for tumor growth: intraperitoneal, vs vehicle.
Data set [4] deals with Hut78 cells. Briefly: NanoString RNA gene expression profiling, Hut78. To be noted: 50 nM, 10 h. It counts as cell-based, human. How it is done: All samples were validated. Data were analyzed using nSolver 3.0 digital analyzer software and R program.
Data set [5] concerns Hut78 cells. As to the kind of experiment: CellTiterGlo cell viability, Hut78. It counts as cell-based, human.
Protocol: Viability assays using trypan blue exclusion and CellTiterGlo Cell Viability Assay: Cell viability was calculated by diluting cell suspensions 1:1 in 0.4% TRYPAN BLUE solution (Sigma, St. Louis, Mo.) and counting the number of viable cells using a TC20™ automated cell counter (Bio-Rad, Irvine, Calif.) that automatically excludes the number of non-viable cells stained with trypan blue per total cells. […] All data points are an average of triplicate experiments.
Absorbance was monitored at 490 nm using an automated BMG PHERAstar plate reader (BMG Labtech). […] All experiments are repeated in three independent experiments and data represented are the average of triplicate experiments.
Another data set concerns the target T3, p38 γ (Homo sapiens, UniProt P53778).
T3 sequence (P53778 1-367): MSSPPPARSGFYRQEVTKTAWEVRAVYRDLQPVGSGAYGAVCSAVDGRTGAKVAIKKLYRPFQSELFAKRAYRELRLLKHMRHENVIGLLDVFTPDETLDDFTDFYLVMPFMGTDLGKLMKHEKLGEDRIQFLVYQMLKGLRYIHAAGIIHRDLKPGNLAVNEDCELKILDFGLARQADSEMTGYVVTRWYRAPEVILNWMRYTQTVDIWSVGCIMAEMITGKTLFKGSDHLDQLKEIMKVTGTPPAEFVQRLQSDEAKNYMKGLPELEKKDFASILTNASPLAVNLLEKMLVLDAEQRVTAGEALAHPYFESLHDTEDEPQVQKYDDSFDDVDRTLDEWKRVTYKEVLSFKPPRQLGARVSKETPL
As to the kind of experiment: Radiometric in vitro kinase assay (SignalChem), p38 γ. Also on record: purchased SignalChem (assay service). It counts as biochemical. The conditions noted are these: 200 nM.

A further data set has as its target PI3K p110γ (Homo sapiens, UniProt P48736). To be noted: summarized from Selleck and Apexbio; read-out: IC50 of PI3K Isoforms, p110γ; cited from earlier work.

SMILES strings stand for the structures. Like-named read-outs stand apart in the source and are kept apart here.

Sequence of PI3K p110γ (P48736 whole entry, canonical isoform): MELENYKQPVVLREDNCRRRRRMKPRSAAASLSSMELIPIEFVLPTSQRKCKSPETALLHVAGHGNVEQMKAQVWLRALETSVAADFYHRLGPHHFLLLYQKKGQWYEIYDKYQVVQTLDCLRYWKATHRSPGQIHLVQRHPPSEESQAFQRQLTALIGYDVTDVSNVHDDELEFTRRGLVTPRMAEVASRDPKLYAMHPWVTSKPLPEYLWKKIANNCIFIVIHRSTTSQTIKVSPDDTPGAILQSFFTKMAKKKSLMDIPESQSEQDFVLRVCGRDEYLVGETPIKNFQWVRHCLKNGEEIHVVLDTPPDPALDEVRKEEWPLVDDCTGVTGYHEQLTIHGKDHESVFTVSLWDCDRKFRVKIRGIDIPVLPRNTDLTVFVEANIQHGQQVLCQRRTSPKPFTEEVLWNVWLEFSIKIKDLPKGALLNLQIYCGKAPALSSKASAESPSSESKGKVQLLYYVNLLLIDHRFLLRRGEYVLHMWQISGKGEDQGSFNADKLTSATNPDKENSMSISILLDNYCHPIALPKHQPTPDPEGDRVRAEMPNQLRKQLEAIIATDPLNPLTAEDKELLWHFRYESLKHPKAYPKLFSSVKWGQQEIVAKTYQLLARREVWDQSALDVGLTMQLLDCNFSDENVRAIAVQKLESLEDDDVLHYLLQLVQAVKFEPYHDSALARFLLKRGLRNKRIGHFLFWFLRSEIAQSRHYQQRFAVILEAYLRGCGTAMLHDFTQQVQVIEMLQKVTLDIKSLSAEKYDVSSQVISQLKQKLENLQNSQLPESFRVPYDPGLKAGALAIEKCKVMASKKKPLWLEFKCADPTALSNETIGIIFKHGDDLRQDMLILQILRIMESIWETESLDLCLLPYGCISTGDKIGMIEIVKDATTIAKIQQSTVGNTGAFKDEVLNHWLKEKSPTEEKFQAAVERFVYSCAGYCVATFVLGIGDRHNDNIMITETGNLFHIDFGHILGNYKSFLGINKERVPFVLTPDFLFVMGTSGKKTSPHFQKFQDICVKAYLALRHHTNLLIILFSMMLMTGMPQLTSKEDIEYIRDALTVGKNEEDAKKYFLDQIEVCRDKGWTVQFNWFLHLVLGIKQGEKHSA
T1 sequence (Q16539 whole entry): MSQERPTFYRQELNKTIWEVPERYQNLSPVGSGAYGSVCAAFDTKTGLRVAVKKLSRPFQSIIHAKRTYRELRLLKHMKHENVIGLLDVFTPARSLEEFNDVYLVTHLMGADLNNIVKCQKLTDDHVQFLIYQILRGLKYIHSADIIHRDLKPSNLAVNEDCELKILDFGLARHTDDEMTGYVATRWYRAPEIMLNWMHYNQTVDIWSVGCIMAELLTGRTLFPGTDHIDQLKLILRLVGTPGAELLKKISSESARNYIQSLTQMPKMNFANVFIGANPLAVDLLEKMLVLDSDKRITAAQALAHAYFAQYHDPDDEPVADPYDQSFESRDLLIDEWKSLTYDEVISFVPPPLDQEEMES
Protocol for Hut78 xenografts: Female and male 6-week-old NSG mice (NOD-scid IL2Rγ null) were purchased from Jackson Laboratory (Sacramento, Calif.). Hut78 cells were used for developing CTCL xenograft tumors. Briefly, 5 million cells in 100 μL (50% Matrigel/50% PBS) were injected subcutaneously into the right flank of each mouse, and tumor development was monitored every other day. Once the tumors are were palpable and reached 100 mm^3 in volume, treatment was commenced. […] Mice were treated every two days via intraperitoneal injection. Tumors were measured twice per week using calipers.
Protocol for p38 γ: as §3

Turning to `Cc1ccc([N+](=O)[O-])cc1S(=O)(=O)N(C)/N=C/c1cnc2ccc(Br)cn12` [Compound 1], in [1], the “dose-dependent inhibition of kinase activity” value is “not”. The molecule also showed an inhibition at 0.05 µM against p38δ [2] of 5.4%. Also, the “proliferation of HH cells” value with HH cells is “sufficiently reduced proliferation”. Also, the values for the IC50 at p38δ [3] and on PI3K p110γ were 32.1 to 120 nM and 76 nM, respectively. In addition, the tumor growth result in the data set with Hut78 xenografts (2 mg/kg) is recorded as “statistically significant inhibition of tumor growth”; in the data set with Hut78 xenografts (10 mg/kg), “further significant reduction of tumor size”; with Hut78 xenografts (10 mg/kg, listed as F7/PIK75) it was “significantly inhibited tumor growth”. Further, the “toxic effects in animal studies” value in the data set on Hut78 xenografts (mouse, in vivo) is recorded as “did not observe any toxic effects”. The Activation z-score with Hut78 cells [4] (IL-6 Signaling) is listed as −3.109; with Hut78 cells [4] (NF-kB signaling), −3.623; in the data set on Hut78 cells [4] (PI3K signaling), −3.108; in the data set on Hut78 cells [4] (PI3KI/AKT signaling), −0.63; in the data set on Hut78 cells [4] (PTEN), 1.25; with Hut78 cells [4] (Role of NFAT in regulation of the immune response), −3.962. Besides, the results for the Activation z-score in the data set with Hut78 cells [4] (Th1 pathway), in the data set with Hut78 cells [4] (Th2 pathway) and in the data set with Hut78 cells [4] (Wnt/B-catenin signaling) were −3.533, −2.236 and 1.152, respectively. Moreover, in the data set on Hut78 cells [5] (Hut78, 100 nM), the cell viability entry is “significantly reduced viability”. Moreover, in the data set with Hut78 cells [5] (varying concentrations, 72 hr), the “effect on viability of Hut78 cells” value is listed as “dose-dependent inhibition of cell viability”. The same molecule showed an inhibition at 0.2 µM against p38 γ of 59%.
